Laboratory results from PMC10165273, “Itch receptor MRGPRX4 interacts with the receptor activity–modifying proteins” (The Journal of Biological Chemistry, 2023).
Like-named read-outs stand apart in the source and are kept apart here.

Molecular target: T1, MRGPRX4 (Homo sapiens, UniProt Q96LA9)
T1 construct: expressed in transfected cells; host or cells: HEK293T
Assay: IP1 accumulation HTRF assay, MRGPRX4;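 on IP1 accumulation, dose-response (Figure 1a): 0% is unstimulated mock-transfected cells and 100% is fully stimulated MRGPRX4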
Format: cell-based
Details: 2 h; for activation at 16 µM: log [agonist] (M) -4.79588; for activation at 3.2 µM: log [agonist] (M) -5.49485; for activation at 0.64 µM: log [agonist] (M) -6.19382; for activation at 0.128 µM: log [agonist] (M) -6.89279; for activation at 0.0256 µM: log [agonist] (M) -7.59176

[1] = SP-FLAG-Nluc-HT7-MRGX4_Tet-GFP10-1D4, read-out: normalized IP1 accumulation
[2] = SP-FLAG-Nluc-HT7-MRGX4_Tet-GFP10-1D4 no dox, read-out: normalized IP1 accumulation

T1 sequence (Q96LA9 whole entry): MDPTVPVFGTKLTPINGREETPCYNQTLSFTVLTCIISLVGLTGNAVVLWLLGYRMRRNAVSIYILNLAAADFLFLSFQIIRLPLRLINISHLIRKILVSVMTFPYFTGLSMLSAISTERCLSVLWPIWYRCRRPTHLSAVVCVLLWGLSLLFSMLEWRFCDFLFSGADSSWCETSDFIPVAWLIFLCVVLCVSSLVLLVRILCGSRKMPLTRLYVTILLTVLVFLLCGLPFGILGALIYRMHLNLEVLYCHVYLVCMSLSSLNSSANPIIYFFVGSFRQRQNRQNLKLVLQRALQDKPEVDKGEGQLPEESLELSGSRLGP

## CC(C)[C@H]1CC[C@H](C(=O)N[C@H](Cc2ccccc2)C(=O)O)CC1 [Nateglinide]
HA-MRGX4-1D4, log [agonist] (M) -4, read-out: normalized IP1 accumulation
  activation at 100 µM: 84.6%
HA-MRGX4-1D4, log [agonist] (M) -4.69897, read-out: normalized IP1 accumulation
  activation at 20 µM: 63.4%
HA-MRGX4-1D4, log [agonist] (M) -5.39794, read-out: normalized IP1 accumulation
  activation at 4 µM: 30.8%
HA-MRGX4-1D4, log [agonist] (M) -6.09691, read-out: normalized IP1 accumulation
  activation at 0.8 µM: 17.7%
HA-MRGX4-1D4, log [agonist] (M) -6.79588, read-out: normalized IP1 accumulation
  activation at […]: 12.4%
HA-MRGX4-1D4, log [agonist] (M) -7.49485, read-out: normalized IP1 accumulation
  activation at 0.032 µM: 12.5%
MRGPRX4: 0.25pg/cell, log [Nateglinide] (M) -4, Fig S1b, read-out: IP1 accumulation
  activation at 100 µM: 76.9%
MRGPRX4: 0.25pg/cell, log [Nateglinide] (M) -4.69897, Fig S1b, read-out: IP1 accumulation
  activation at 20 µM: 53.7%
MRGPRX4: 0.25pg/cell, log [Nateglinide] (M) -5.39794, Fig S1b, read-out: IP1 accumulation
  activation at 4 µM: 21.2%
MRGPRX4: 0.25pg/cell, log [Nateglinide] (M) -6.79588, Fig S1b, read-out: IP1 accumulation
  activation at […]: 3.43%
MRGPRX4: 0.25pg/cell, log [Nateglinide] (M) -7.49485, Fig S1b, read-out: IP1 accumulation
  activation at 0.032 µM: 3.78%
MRGPRX4: 0.5pg/cell, log [Nateglinide] (M) -4, Fig S1b, read-out: IP1 accumulation
  activation at 100 µM: 92.5%
MRGPRX4: 0.5pg/cell, log [Nateglinide] (M) -4.69897, Fig S1b, read-out: IP1 accumulation
  activation at 20 µM: 65.9%
MRGPRX4: 0.5pg/cell, log [Nateglinide] (M) -5.39794, Fig S1b, read-out: IP1 accumulation
  activation at 4 µM: 33%
MRGPRX4: 0.5pg/cell, log [Nateglinide] (M) -6.09691, Fig S1b, read-out: IP1 accumulation
  activation at 0.8 µM: 11.8%
MRGPRX4: 0.5pg/cell, log [Nateglinide] (M) -6.79588, Fig S1b, read-out: IP1 accumulation
  activation at […]: 6.22%
MRGPRX4: 0.5pg/cell, log [Nateglinide] (M) -7.49485, Fig S1b, read-out: IP1 accumulation
  activation at 0.032 µM: 5.53%
MRGPRX4: 1pg/cell, log [Nateglinide] (M) -4, Fig S1b, read-out: IP1 accumulation
  activation at 100 µM: 92.1%
MRGPRX4: 1pg/cell, log [Nateglinide] (M) -4.69897, Fig S1b, read-out: IP1 accumulation
  activation at 20 µM: 75.4%
MRGPRX4: 1pg/cell, log [Nateglinide] (M) -5.39794, Fig S1b, read-out: IP1 accumulation
  activation at 4 µM: 37.9%
MRGPRX4: 1pg/cell, log [Nateglinide] (M) -6.09691, Fig S1b, read-out: IP1 accumulation
  activation at 0.8 µM: 17.7%
MRGPRX4: 1pg/cell, log [Nateglinide] (M) -6.79588, Fig S1b, read-out: IP1 accumulation
  activation at […]: 11.7%
MRGPRX4: 1pg/cell, log [Nateglinide] (M) -7.49485, Fig S1b, read-out: IP1 accumulation
  activation at 0.032 µM: 9.46%
MRGPRX4: 2pg/cell, log [Nateglinide] (M) -4, Fig S1b/c, read-out: IP1 accumulation
  activation at 100 µM: 100%
MRGPRX4: 2pg/cell, log [Nateglinide] (M) -4.69897, Fig S1b/c, read-out: IP1 accumulation
  activation at 20 µM: 88.5%
MRGPRX4: 2pg/cell, log [Nateglinide] (M) -5.39794, Fig S1b/c, read-out: IP1 accumulation
  activation at 4 µM: 44.1%
MRGPRX4: 2pg/cell, log [Nateglinide] (M) -6.09691, Fig S1b/c, read-out: IP1 accumulation
  activation at 0.8 µM: 21.4%
MRGPRX4: 2pg/cell, log [Nateglinide] (M) -6.79588, Fig S1b/c, read-out: IP1 accumulation
  activation at […]: 13.8%
MRGPRX4: 2pg/cell, log [Nateglinide] (M) -7.49485, Fig S1b/c, read-out: IP1 accumulation
  activation at 0.032 µM: 12.6%
MRGPRX4: […], log [Nateglinide] (M) -4, Fig S1b, read-out: IP1 accumulation
  activation at 100 µM: 68.7%
MRGPRX4: […], log [Nateglinide] (M) -4.69897, Fig S1b, read-out: IP1 accumulation
  activation at 20 µM: 45%
MRGPRX4: […], log [Nateglinide] (M) -5.39794, Fig S1b, read-out: IP1 accumulation
  activation at 4 µM: 17.6%
MRGPRX4: […], log [Nateglinide] (M) -6.09691, Fig S1b, read-out: IP1 accumulation
  activation at 0.8 µM: 5.45%
MRGPRX4: […], log [Nateglinide] (M) -7.49485, Fig S1b, read-out: IP1 accumulation
  activation at 0.032 µM: 2.09%
MRGPRX4, nateglinide 30uM, Fig S1d
  activation at 30 µM: 86.4%
MRGPRX4, nateglinide 100uM, Fig S1d, read-out: IP1 accumulation
  activation at 100 µM: 100%
MRGPRX4 alone, log [Nateglinide] (M) -4, Fig S3a-c, read-out: IP1 accumulation
  activation at 100 µM: 100%
MRGPRX4 alone, log [Nateglinide] (M) -4.69897, Fig S3a-c, read-out: IP1 accumulation
  activation at 20 µM: 85.7%
MRGPRX4 alone, log [Nateglinide] (M) -5.39794, Fig S3a-c, read-out: IP1 accumulation
  activation at 4 µM: 46.2%
MRGPRX4 alone, log [Nateglinide] (M) -6.09691, Fig S3a-c, read-out: IP1 accumulation
  activation at 0.8 µM: 23%
MRGPRX4 alone, log [Nateglinide] (M) -6.79588, Fig S3a-c, read-out: IP1 accumulation
  activation at […]: 17.8%
MRGPRX4 alone, log [Nateglinide] (M) -7.49485, Fig S3a-c, read-out: IP1 accumulation
  activation at 0.032 µM: 17.4%
MRGX4 + Ng, 30uM, U73122 30uM, Fig S1e
  activation at 30 µM: 21.3%
MRGX4 + Ng, 30uM, buffer, Fig S1e
  activation at 30 µM: 84.5%
MRGX4 + Ng, 100uM, U73122 30uM, Fig S1e, read-out: IP1 accumulation
  activation at 100 µM: 31%
MRGX4 + Ng, 100uM, buffer, Fig S1e, read-out: IP1 accumulation
  activation at 100 µM: 100%
SP-FLAG-Nluc-HT7-MRGX4_Tet-GFP10-1D4, log [agonist] (M) -4.09691, read-out: normalized IP1 accumulation
  activation at 80 µM: 49.1%
[1]
  activation at 16 µM: 42%
  activation at 3.2 µM: 23.5%
  activation at 0.64 µM: 12.9%
  activation at 0.128 µM: 10.3%
  activation at 0.0256 µM: 9.54%
[2]
  activation at 16 µM: 10.5%
  activation at 3.2 µM: 7.88%
  activation at 0.64 µM: 7.83%
  activation at 0.128 µM: 7.62%
  activation at 0.0256 µM: 8.15%
SP-Flag-MRGX4-1D4, log [agonist] (M) -4, read-out: normalized IP1 accumulation
  activation at 100 µM: 85.6%
SP-Flag-MRGX4-1D4, log [agonist] (M) -4.69897, read-out: normalized IP1 accumulation
  activation at 20 µM: 66.9%
SP-Flag-MRGX4-1D4, log [agonist] (M) -5.39794, read-out: normalized IP1 accumulation
  activation at 4 µM: 28.3%
SP-Flag-MRGX4-1D4, log [agonist] (M) -6.09691, read-out: normalized IP1 accumulation
  activation at 0.8 µM: 11.8%
SP-Flag-MRGX4-1D4, log [agonist] (M) -6.79588, read-out: normalized IP1 accumulation
  activation at […]: 7.74%
SP-Flag-MRGX4-1D4, log [agonist] (M) -7.49485, read-out: normalized IP1 accumulation
  activation at 0.032 µM: 8.22%
SP-Flag-MRGX4-GFP10-1D4, log [agonist] (M) -4, read-out: normalized IP1 accumulation
  activation at 100 µM: 100%
SP-Flag-MRGX4-GFP10-1D4, log [agonist] (M) -4.69897, read-out: normalized IP1 accumulation
  activation at 20 µM: 74%
SP-Flag-MRGX4-GFP10-1D4, log [agonist] (M) -5.39794, read-out: normalized IP1 accumulation
  activation at 4 µM: 34.7%
SP-Flag-MRGX4-GFP10-1D4, log [agonist] (M) -6.09691, read-out: normalized IP1 accumulation
  activation at 0.8 µM: 13.4%
SP-Flag-MRGX4-GFP10-1D4, log [agonist] (M) -6.79588, read-out: normalized IP1 accumulation
  activation at […]: 8.46%
SP-Flag-MRGX4-GFP10-1D4, log [agonist] (M) -7.49485, read-out: normalized IP1 accumulation
  activation at 0.032 µM: 8.07%
Log [agonist] (M) -5.43136, MRGX4-transfected, individual replicates, read-out: IP1 accumulation, dose-response (Figure 1a)
  activation at 3.7037 µM: 40%
Log [agonist] (M) -6.38561, MRGX4-transfected, individual replicates, read-out: IP1 accumulation, dose-response (Figure 1a)
  activation at 0.4115 µM: 19.1%
Log [nateglinide] (M) -4, Dox 13 ng/mL, Supplementary Figure 5a, read-out: IP1 accumulation (normalized)
  activation at 100 µM: 79.6%
Log [nateglinide] (M) -4, Dox 13 ng/mL, Supplementary Figure 5b, read-out: IP1 accumulation (normalized)
  activation at 100 µM: 13.6%
Log [nateglinide] (M) -4, Dox 13 ng/mL, Supplementary Figure 5c, read-out: IP1 accumulation (normalized)
  activation at 100 µM: 46.6%
Log [nateglinide] (M) -4, Dox 40 ng/mL, Supplementary Figure 5a, read-out: IP1 accumulation (normalized)
  activation at 100 µM: 82.2%
